IC50 and selectivity ratio data for 13 molecules are collected here from ChEMBL document CHEMBL5576127, “New CDDO Arylboronate Ester Derivatives with High Selectivity and Low Toxicity” (J Med Chem, 2024).

The subject of one data set is MCF7. Put plainly: Antiproliferative activity against human MCF7 cells assessed as inhibition of cell proliferation incubated for 48 hrs by MTT assay. In kind it is functional, cell-based. Particulars: MCF7, 48 h.
Data set [1] deals with BGC-823. Put plainly: Antiproliferative activity against human BGC-823 cells assessed as inhibition of cell proliferation incubated for 48 hrs by MTT assay. It is filed as functional, cell-based. To be noted: BGC-823, 48 h.
A further data set relates to HepG2. Put plainly: Antiproliferative activity against human HepG2 cells assessed as inhibition of cell proliferation incubated for 48 hrs by MTT assay. Particulars: HepG2, 48 h. In kind it is functional, cell-based.
Data set [2] in a line: Cytotoxicity against human MCF-10A cells assessed as inhibition of cell proliferation incubated for 48 hrs by MTT assay. In kind it is toxicity, cell-based.
The nature of data set [3]: Cytotoxicity against human GES1 cells assessed as inhibition of cell proliferation incubated for 48 hrs by MTT assay. It is filed as toxicity, cell-based.
Data set [4] is described as follows: Cytotoxicity against human L02 cells assessed as inhibition of cell proliferation incubated for 48 hrs by MTT assay. It is filed as toxicity, cell-based.
The next data set deals with MGC-803. The data set is described as follows: Antiproliferative activity against human MGC-803 cells assessed as inhibition of cell proliferation incubated for 48 hrs by MTT assay. To be noted: MGC-803, 48 h. In kind it is functional, cell-based.
The next data set has as its system SGC-7901. Put plainly: Antiproliferative activity against human SGC-7901 cells assessed as inhibition of cell proliferation incubated for 48 hrs by MTT assay. In kind it is functional, cell-based. Particulars: SGC-7901, 48 h.
Another data set concerns NCI-N87. The data set is described as follows: Antiproliferative activity against human NCI-N87 cells assessed as inhibition of cell proliferation incubated for 48 hrs by MTT assay. It is filed as functional, cell-based. To be noted: NCI-N87, 48 h.
The subject of data set [5] is BGC-823. Put plainly: Antiproliferative activity against human BGC-823 cells assessed as inhibition of cell proliferation preincubated with H2O2 for 2 hrs followed by compound addition and measured after 48 hrs by MTT assay. It is filed as functional, cell-based.
Data set [6] is described as follows: Selectivity index, ratio of IC50 for cytotoxicity against human GES1 cells to IC50 for antiproliferative activity against human BGC-823 cells in presence of H2O2. In kind it is toxicity, cell-based. Particulars: GES1 cells and BGC-823 cells, read-out: Ratio IC50.

For the molecule `CC1(C)CC[C@]2(C(=O)OCCCCCOc3ccc(NC(=O)OCc4ccc(B5OC(C)(C)C(C)(C)O5)cc4)cc3)CC[C@]3(C)[C@H](C(=O)C=C4[C@@]5(C)C=C(C#N)C(=O)C(C)(C)[C@@H]5CC[C@]43C)[C@@H]2C1`, the IC50 is 2.7 µM in the data set with MCF7; 1.4 µM in the data set on BGC-823 [1]; 3.9 µM in the data set with HepG2; 2.7 µM with MGC-803; 3.1 µM with SGC-7901; 1.6 µM in the data set with NCI-N87. In addition, the half-inhibitory concentration (IC50) in the data set on BGC-823 [5] was found to be 0.8 µM. Also, the IC50 at 48 h in [2] worked out at 5.9 µM; in [3], 3 µM; in [4], 4.9 µM. The selectivity ratio in data set [6] amounted to 3.75.

Consider `COc1ccc(/C=C/CC(=O)OCCCOC(=O)[C@]23CCC(C)(C)C[C@H]2[C@H]2C(=O)C=C4[C@@]5(C)C=C(C#N)C(=O)C(C)(C)[C@@H]5CC[C@@]4(C)[C@]2(C)CC3)cc1OCc1ccc(B2OC(C)(C)C(C)(C)O2)cc1`, for which the IC50 in the data set on MCF7 is 3.5 µM; with BGC-823 [1] it was 5.5 µM; in the data set with HepG2, 3.6 µM. Further, the 50% inhibitory concentration (IC50) at 48 h in [2] is 4 µM; in data set [3], 6.6 µM; in data set [4] it was 5 µM.

For `CC1(C)CC[C@]2(C(=O)OCCCOC(=O)c3ccc(OCc4ccc(B5OC(C)(C)C(C)(C)O5)cc4)cc3)CC[C@]3(C)[C@H](C(=O)C=C4[C@@]5(C)C=C(C#N)C(=O)C(C)(C)[C@@H]5CC[C@]43C)[C@@H]2C1`, the concentration for half-maximal inhibition (IC50) with MCF7 is 1.5 µM; in the data set with BGC-823 [1], 2 µM; in the data set with HepG2 it was 3 µM. Besides, the figures for the IC50 at 48 h in data set [2], in data set [3] and in data set [4] were 3.1 µM, 2.7 µM and 3.6 µM, respectively.

With `COc1cc(C(=O)OCCCCOC(=O)[C@]23CCC(C)(C)C[C@H]2[C@H]2C(=O)C=C4[C@@]5(C)C=C(C#N)C(=O)C(C)(C)[C@@H]5CC[C@@]4(C)[C@]2(C)CC3)ccc1OCc1ccc(B2OC(C)(C)C(C)(C)O2)cc1`, the half-maximal inhibitory concentration (IC50) was 12.9 µM in the data set on MCF7, 8.3 µM in the data set with BGC-823 [1] and 15.5 µM in the data set with HepG2. Besides, the concentration for half-maximal inhibition (IC50) at 48 h in data set [2] is 12.4 µM; in data set [3], 9.2 µM; in data set [4], 15.6 µM.

Consider `COc1cc(C(=O)OCCCCOC(=O)[C@]23CCC(C)(C)C[C@H]2[C@H]2C(=O)C=C4[C@@]5(C)C=C(C#N)C(=O)C(C)(C)[C@@H]5CC[C@@]4(C)[C@]2(C)CC3)cc(OC)c1OCc1ccc(B2OC(C)(C)C(C)(C)O2)cc1`, for which the values for the IC50 with MCF7, in the data set with BGC-823 [1] and in the data set with HepG2 were 3.5 µM, 3.5 µM and 5.4 µM, respectively. Further, the IC50 at 48 h came to 4 µM in data set [2], 4.2 µM in [3] and 6.1 µM in [4].

Regarding `COc1cc(/C=C/CC(=O)OCCCOC(=O)[C@]23CCC(C)(C)C[C@H]2[C@H]2C(=O)C=C4[C@@]5(C)C=C(C#N)C(=O)C(C)(C)[C@@H]5CC[C@@]4(C)[C@]2(C)CC3)ccc1OCc1ccc(B2OC(C)(C)C(C)(C)O2)cc1`, the concentration for half-maximal inhibition (IC50) in the data set with MCF7 worked out at 29 µM; in the data set with BGC-823 [1], 2.3 µM; with HepG2 it was 5.5 µM. Further, the IC50 at 48 h in [2] came to 2.4 µM; in data set [3], 4.2 µM; in data set [4] it was 5.6 µM.

Take `CC1(C)CC[C@]2(C(=O)OCCCOC(=O)C/C=C/c3ccc(OCc4ccc(B5OC(C)(C)C(C)(C)O5)cc4)cc3)CC[C@]3(C)[C@H](C(=O)C=C4[C@@]5(C)C=C(C#N)C(=O)C(C)(C)[C@@H]5CC[C@]43C)[C@@H]2C1`: the half-maximal inhibitory concentration (IC50) with MCF7 was 9.9 µM; in the data set on BGC-823 [1], 8.7 µM; with HepG2 it was 6.5 µM. Also, the IC50 at 48 h in [2] turned out to be 18.3 µM; in data set [3], 6.9 µM; in data set [4] it was 3.3 µM.

As to `CC1(C)CC[C@]2(C(=O)OCCCCCCOC(=O)c3ccc(OCc4ccc(B5OC(C)(C)C(C)(C)O5)cc4)cc3)CC[C@]3(C)[C@H](C(=O)C=C4[C@@]5(C)C=C(C#N)C(=O)C(C)(C)[C@@H]5CC[C@]43C)[C@@H]2C1`, the figures for the IC50 in the data set with MCF7, with BGC-823 [1] and in the data set with HepG2 were 2.4 µM, 3.2 µM and 65 µM, respectively. The IC50 at 48 h came to 3.3 µM in data set [2], 4.7 µM in data set [3] and 6.4 µM in data set [4].

As to `CC1(C)CC[C@]2(C(=O)OCCOC(=O)c3ccc(OCc4ccc(B5OC(C)(C)C(C)(C)O5)cc4)cc3)CC[C@]3(C)[C@H](C(=O)C=C4[C@@]5(C)C=C(C#N)C(=O)C(C)(C)[C@@H]5CC[C@]43C)[C@@H]2C1`, the IC50 turned out to be 2.9 µM with MCF7, 3.8 µM with BGC-823 [1] and 3.6 µM in the data set with HepG2. Also, the IC50 at 48 h came out at 4 µM in data set [2], 4.7 µM in [3] and 5 µM in [4].

With `CC1(C)CC[C@]2(C(=O)OCCCOC(=O)Cc3ccc(OCc4ccc(B5OC(C)(C)C(C)(C)O5)cc4)cc3)CC[C@]3(C)[C@H](C(=O)C=C4[C@@]5(C)C=C(C#N)C(=O)C(C)(C)[C@@H]5CC[C@]43C)[C@@H]2C1`, the values for the IC50 in the data set with MCF7, in the data set on BGC-823 [1] and in the data set with HepG2 were 1.4 µM, 1.6 µM and 2.5 µM, respectively. Further, the 50% inhibitory concentration (IC50) at 48 h in data set [2] was 2.5 µM; in [3], 2.2 µM; in data set [4] it was 4.1 µM.

Regarding `CC1(C)CC[C@]2(C(=O)OCCc3ccc(OCc4ccc(B5OC(C)(C)C(C)(C)O5)cc4)cc3)CC[C@]3(C)[C@H](C(=O)C=C4[C@@]5(C)C=C(C#N)C(=O)C(C)(C)[C@@H]5CC[C@]43C)[C@@H]2C1`, the IC50 turned out to be 1 µM in the data set on MCF7, 0.7 µM with BGC-823 [1] and 2 µM in the data set with HepG2. Besides, the 50% inhibitory concentration (IC50) at 48 h turned out to be 1.7 µM in [2], 0.8 µM in data set [3] and 2.1 µM in data set [4].

In the case of `CC1(C)CC[C@]2(C(=O)OCCCCCOC(=O)c3ccc(OCc4ccc(B5OC(C)(C)C(C)(C)O5)cc4)cc3)CC[C@]3(C)[C@H](C(=O)C=C4[C@@]5(C)C=C(C#N)C(=O)C(C)(C)[C@@H]5CC[C@]43C)[C@@H]2C1`, the IC50 in the data set with MCF7 worked out at 1.6 µM; with BGC-823 [1] it was 2.1 µM; in the data set on HepG2 it was 2.8 µM. Further, the IC50 at 48 h in data set [2] is 3.1 µM; in data set [3] it was 2.8 µM; in [4], 3.5 µM.

Take `CC1(C)CC[C@]2(C(=O)OCCCOc3ccc(NC(=O)OCc4ccc(B5OC(C)(C)C(C)(C)O5)cc4)cc3)CC[C@]3(C)[C@H](C(=O)C=C4[C@@]5(C)C=C(C#N)C(=O)C(C)(C)[C@@H]5CC[C@]43C)[C@@H]2C1`: the 50% inhibitory concentration (IC50) in the data set on MCF7 came out at 1.1 µM; in the data set on BGC-823 [1], 1.2 µM; in the data set with HepG2, 2.8 µM. The IC50 at 48 h in [2] is 1.8 µM; in data set [3] it was 1.5 µM; in data set [4] it was 3.5 µM.
